Key:
[1] = Caco-2 Permeability Assay; type: in vitro ADME, human; settings: human
How it was run: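 Bidirectional transport at 37 °C for 90 min, 10 μM donor concentration, with or without Pgp inhibitor, across 21-day Caco-2 monolayers with TEER >600 […] in HEPES-buffered HBSS, pH 7.4. LC-MS/MS of donor and receiver samples gives Papp, B→A/A→B efflux ratio and mass recovery.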

[2] = Stability in Simulated Gastric Fluid (SGF); type: in vitro ADME; set-up: key: % parent compound remaining relative to 0-minute sample
How it was run: (§1)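 LC-MS/MS read-out of intact compound (2 μg/mL final) over 60 minutes at 37° C; gastric medium pH 1.2 with pepsin, intestinal medium pH 6.8 with pancreatin. Half-life from ln(% remaining) against time.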

[3] = Stability in Simulated Intestinal Fluid (SIF); type: in vitro ADME; set-up: key: % parent compound remaining relative to 0-minute sample
How it was run: as §1

[4] = Plasma Stability; type: in vitro ADME, human
How it was run: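 Parent compound quantified by LC-MS/MS after acetonitrile precipitation, reported as percent of control remaining (triplicate). Incubation: 1 hour, 37° C, fresh human plasma, compound at 1 μM.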

[5] = Caco-2, pH 7.4, Caco-2 monolayer
[6] = % remaining at 1 h in simulated gastric fluid
[7] = % remaining at 1 h in simulated intestinal fluid
[8] = % remaining at 1 h in human plasma
[9] = bare number, unit or time not given

SMILES: CC(C)C[C@H](NC(=O)OC(C)(C)C)C(=O)OCn1c(=O)c2c(ccn2COC(=O)[C@H](CC(C)C)NC(=O)OC(C)(C)C)n(CCOC(C)C)c1=S [Example 316, [3-({[(2S)-2-{[(tert-butoxy)carbonyl]amino}-4-methylpentanoyl]oxy}methyl)-4-oxo-1-[2-(propan-2-yloxy)ethyl]-2-sulfanylidene-1H,2H,3H,4H,5H-pyrrolo [3,2-d]pyrimidin-5-yl]methyl (2S)-2-{[(tert-butoxy)carbonyl]amino}-4-methylpentanoate]
- Papp at 90 min, 10 µM ([1]; Caco-2, pH 7.4): 7.6 ×10⁻⁶ cm/s
- SGF ([2]; % remaining @ 1 h): 99%@ 1 h
- SIF ([3]; % remaining @ 1 h): 6%@ 1 h
- human Plasma stability ([4]; % remaining @ 1 h): 37%@ 1 h

SMILES: CSCC[C@H](N)C(=O)NCCCCC(=O)OCn1ccc2c1c(=O)[nH]c(=S)n2CCOC(C)C.O=C(O)C(F)(F)F [Example 31]
- Papp at 90 min, 10 µM [1, 5]: 0.325 ×10⁻⁶ cm/s
- SGF [2, 6]: 94% remaining
- SIF [3, 7]: 85% remaining
- human Plasma stability [4, 8]: 1% remaining

SMILES: CC(C)OCCn1c(=S)[nH]c(=O)c2c1ccn2COC(=O)CCCCOC(=O)[C@H](Cc1ccccc1)NC(=O)OC(C)(C)C [Example 334, {4-oxo-1-[2-(propan-2-yloxy)ethyl]-2-sulfanylidene-1H,2H,3H,4H,5H-pyrrolo[3,2-d]pyrimidin-5-yl}methyl 5-{[(2S)-2-{[(tert-butoxy)carbonyl]amino}-3-phenylpropanoyl]oxy}pentanoate]
- Papp at 90 min, 10 µM ([1]; Caco-2, pH 7.4): 6.26 ×10⁻⁶ cm/s
- SGF [2, 9]: 90
- SIF [3, 9]: 2
- human Plasma stability ([4]; % remaining @ 1 h): 58% remaining

SMILES: CC(C)OCCn1c(=S)[nH]c(=O)c2c1ccn2COC(=O)CCNC(=O)[C@@H](N)CCc1ccccc1.O=C(O)C(F)(F)F [Example 25]
- Papp at 90 min, 10 µM [1, 5]: 0.287 ×10⁻⁶ cm/s
- SGF [2, 6]: 99% remaining
- SIF [3, 7]: 43% remaining
- human Plasma stability [4, 8]: 96% remaining

SMILES: CC(C)OCCn1c(SCOC(=O)CCCOC(=O)[C@H](N)C(C)C)nc(=O)c2c1ccn2COC(=O)CCCOC(=O)[C@H](N)C(C)C.O=C(O)C(F)(F)F.O=C(O)C(F)(F)F [Example 358, bis(trifluoroacetic acid) 4-(((5-(((4-((D-valyl)oxy)butanoyl)oxy)methyl)-1-(2-isopropoxyethyl)-4-oxo-4,5-dihydro-1H-pyrrolo[3,2-d]pyrimidin-2-yl)thio)methoxy)-4-oxobutyl D-valinate]
- Papp at 90 min, 10 µM [1, 5]: 1.78 ×10⁻⁶ cm/s
- SGF ([2]; simulated gastric fluid, remaining at 1 h): 80% remaining
- SIF ([3]; simulated intestinal fluid, bare number, unit or time not given): 48
- human Plasma stability ([4]; human plasma, remaining at 1 h): 12% remaining

SMILES: CCCCCCOC(=O)OCSc1nc(=O)c2c(ccn2COC(=O)OCCCCCC)n1CCOC(C)C [Example 214]
- Papp at 90 min, 10 µM ([1]; Caco-2, pH 7.4, Caco-2 monolayer, the 17th table): 1.63 ×10⁻⁶ cm/s
- SGF ([2]; % remaining at 1 h in simulated gastric fluid, the 17th table): 80% remaining
- SIF ([3]; % remaining at 1 h in simulated intestinal fluid, the 17th table): 2% remaining
- human Plasma stability ([4]; % remaining at 1 h in human plasma, the 17th table): 77% remaining

SMILES: CC(C)OCCn1c(SCOC(=O)N(C)CCc2ccccc2)nc(=O)c2c1ccn2COC(=O)N(C)CCc1ccccc1.O=C(O)C(F)(F)F [Example 176]
- Papp at 90 min, 10 µM [1, 5]: 40.4 ×10⁻⁶ cm/s
- SGF ([2]; % @ 1 h (remaining) in simulated gastric fluid): 86% @ 1 h
- SIF ([3]; % @ 1 h (remaining) in simulated intestinal fluid): 100% @ 1 h
- human Plasma stability ([4]; % @ 1 h (remaining) in human plasma): 99% @ 1 h

SMILES: CC(C)OCCn1c(=S)[nH]c(=O)c2c1ccn2COC(=O)CCNC(=O)C1CCCN1C(=O)OC(C)C.O=C(O)C(F)(F)F (centres unmarked) [Example 68]
- Papp at 90 min, 10 µM [1, 5]: 2.26 ×10⁻⁶ cm/s
- SGF [2, 6]: 76% remaining
- SIF [3, 7]: 69% remaining
- human Plasma stability [4, 8]: 100%

SMILES: CC(C)OCCn1c(SCOC(=O)[C@@H](N)Cc2ccccc2)nc(=O)c2c1ccn2COC(=O)[C@@H](N)Cc1ccccc1.O=C(O)C(F)(F)F.O=C(O)C(F)(F)F [Example 309, bis(trifluoroacetic acid) {[5-({[(2S)-2-amino-3-phenylpropanoyl]oxy}methyl)-4-oxo-1-[2-(propan-2-yloxy)ethyl]-1H,4H,5H-pyrrolo[3,2-d]pyrimidin-2-yl]sulfanyl}methyl (2S)-2-amino-3-phenylpropanoate]
- Papp at 90 min, 10 µM ([1]; Caco-2, pH 7.4): < 0.123 ×10⁻⁶ cm/s
- SGF ([2]; % remaining @ 1 h): 98% @ 1 h
- SIF ([3]; % remaining @ 1 h): 86% @ 1 h
- human Plasma stability ([4]; % remaining @ 1 h): 5% @ 1 h

SMILES: CC(C)OCCn1c(=S)[nH]c(=O)c2c1ccn2COC(=O)CCNC(=O)[C@@H](NC(=O)OC(C)(C)C)[C@@H](C)O.O=C(O)C(F)(F)F [Example 36]
- Papp at 90 min, 10 µM [1, 5]: 0.835 ×10⁻⁶ cm/s
- SGF [2, 6]: 95% remaining
- SIF [3, 7]: 88% remaining
- human Plasma stability [4, 8]: 79% remaining

SMILES: CC(C)OCCn1c(=S)[nH]c(=O)c2c1ccn2COC(=O)[C@@H]1CCCN1C(=O)OC(C)(C)C [Example 1, (S)-tert-Butyl (1,2,3,4-tetrahydro-1-(2-isopropoxyethyl)-4-oxo-2-thioxopyrrolo[3,2-d]pyrimidin-5-yl)methyl pyrrolidine-1,2-dicarboxylate]
- Papp at 90 min, 10 µM ([1]; Caco-2, pH 7.4, donor 10 μM, 90 minutes, 37° C., direction not given): 37.1 ×10⁻⁶ cm/s
- SGF ([2]; % remaining at 1 h, SGF with pepsin pH 1.2, 2 μg/mL, 37° C.): 99%
- SIF ([3]; % remaining at 1 h, SIF with pancreatin pH 6.8, 2 μg/mL, 37° C.): 94%
- human Plasma stability ([4]; % remaining at 1 h, human plasma, 1 μM, 37° C.): 92%

Source: US20240067651A1 (Biohaven Therapeutics Ltd., priority 2019, published 2024)
